Source: US10874646B2, “Epothilone analogs, methods of synthesis, methods of treatment, and drug conjugates thereof” (WILLIAM MARSH RICE UNIVERSITY, priority 2015, dated 2020)
Where two headings read alike, the source gives them in different places.

Assays:
OVCAR-8 = assay: Cytotoxicity, standard NCI assay with sulforhodamine B, 96 h; conditions: for IC50: read-out: Cytotoxicity (nM, ± SD) OVCAR-8; for GI50: read-out: cytotoxicity (GI50, nM ± SD) OVCAR-8
MCF-7 = assay: as above; conditions: for IC50: read-out: Cytotoxicity (nM, ± SD) MCF-7; for GI50: read-out: cytotoxicity (GI50, nM ± SD) MCF-7
NCI/ADR-RES = assay: as above; type: cell-based, human; conditions: read-out: Cytotoxicity (nM, ± SD) NCI/ADR-RES
tubulin = assay: Induction/enhancement of tubulin assembly (Lin, et al., 1996); type: biochemical; conditions: 10 μM tubulin, 0.4M monosodium glutamate, 30 min at room temperature
MDA-MB-435 [1] = assay: Cytotoxicity, standard NCI assay with sulforhodamine B, 96 h; type: cell-based, human; conditions: read-out: Cytotoxicity (nM, ± SD) MDA-MB-435
SNB-75 = assay: as above; type: cell-based, human; conditions: read-out: Cytotoxicity (nM, ± SD) SNB-75
U251 = assay: NCI-60 human cancer cell line panel, five dose screen; type: cell-based; conditions: U-251, NCI-60 five dose screen
Text: (§1) Biological evaluation. The synthesized epothilone analogues were submitted to the NCI for testing against the NCI-60 human cancer cell line panel (Shoemaker, 2006).

RXF 393 = assay: as above; type: cell-based; conditions: NCI-60 five dose screen
Text: as §1

HCT-116 = assay: as above; type: cell-based; conditions: NCI-60 five dose screen
Text: as §1

COLO 205 = assay: as above; type: cell-based; conditions: NCI-60 five dose screen
Text: as §1

SF-539 = assay: as above; type: cell-based; conditions: NCI-60 five dose screen
Text: as §1

HCT-15 = assay: as above; type: cell-based; conditions: NCI-60 five dose screen
Text: as §1

SK-MEL-5 = assay: as above; type: cell-based; conditions: NCI-60 five dose screen
Text: as §1

PC-3 = assay: as above; type: cell-based; conditions: NCI-60 five dose screen
Text: as §1

OVCAR-3 = assay: as above; type: cell-based; conditions: NCI-60 five dose screen
Text: as §1

KM12 = assay: as above; type: cell-based; conditions: NCI-60 five dose screen
Text: as §1

HOP-92 = assay: as above; type: cell-based; conditions: NCI-60 five dose screen, read-out: GI50
Text: as §1

A549/ATCC = assay: as above; type: cell-based; conditions: NCI-60 five dose screen
Text: as §1

HS 578T = assay: as above; type: cell-based; conditions: NCI-60 five dose screen
Text: as §1

MOLT-4 = assay: as above; type: cell-based; conditions: NCI-60 five dose screen
Text: as §1

HT29 = assay: as above; type: cell-based; conditions: HT-29, NCI-60 five dose screen
Text: as §1

K-562 = assay: as above; type: cell-based; conditions: K562, NCI-60 five dose screen
Text: as §1

M14 = assay: as above; type: cell-based; conditions: NCI-60 five dose screen
Text: as §1

MCF7 = assay: as above; type: cell-based; conditions: NCI-60 five dose screen
Text: as §1

NCI-H460 = assay: as above; type: cell-based; conditions: NCI-60 five dose screen
Text: as §1

MDA-MB-435 [2] = assay: as above; type: cell-based; conditions: NCI-60 five dose screen
Text: as §1

LOX IMVI = assay: as above; type: cell-based; conditions: NCI-60 five dose screen
Text: as §1

A498 = assay: as above; type: cell-based; conditions: NCI-60 five dose screen
Text: as §1

RPMI-8226 = assay: as above; type: cell-based; conditions: NCI-60 five dose screen
Text: as §1

SW-620 = assay: as above; type: cell-based; conditions: NCI-60 five dose screen
Text: as §1

CCRF-CEM = assay: as above; type: cell-based; conditions: NCI-60 five dose screen
Text: as §1

NCI-H23 = assay: as above; type: cell-based; conditions: NCI-60 five dose screen
Text: as §1

MDA-MB-468 = assay: as above; type: cell-based; conditions: NCI-60 five dose screen
Text: as §1

HL-60(TB) = assay: as above; type: cell-based; conditions: NCI-60 five dose screen
Text: as §1

[3] = Homo sapiens, NCI/ADR-RES, 96 h
[4] = Table 3, read-out: Enhancement of tubulin assembly (EC50)
[5] = Table 2, read-out: induction of tubulin assembly (EC50, μM ± SD)
[6] = OVCAR-8, IC50, 96 h at 37° C., Table 3
[7] = OVCAR-8, 96 h at 37° C., Table 2
[8] = MCF-7, IC50, 96 h at 37° C., Table 3
[9] = NCI/ADR-RES (overexpresses P-glycoprotein), IC50, 96 h at 37° C., Table 3
[10] = MDA-MB-435, IC50, 96 h at 37° C., Table 3
[11] = SNB-75, IC50, 96 h at 37° C., Table 3

## CSc1nc(/C=C(\C)[C@@H]2C[C@@H]3N(CC4CC4)[C@]3(C)CCC[C@H](C)[C@H](O)[C@@H](C)C(=O)C(C)(C)[C@@H](O)CC(=O)O2)cs1 (stereo partly drawn) [Compound 81]
OVCAR-8; Homo sapiens, OVCAR-8, 96 h
  IC50: 15 ± 2 nM
MCF-7; Homo sapiens, MCF7, 96 h
  IC50: 18 ± 3 nM
NCI/ADR-RES; [3]
  IC50: 18 ± 4 nM
tubulin; [4]
  EC50: 5.1 ± 0.4 µM
MDA-MB-435 [1]; Homo sapiens, MDA-MB-435, 96 h
  IC50: 9.5 ± 2 nM
SNB-75; Homo sapiens, SNB-75, 96 h
  IC50: 16 ± 3 nM

## CSc1nc(/C=C(\C)[C@@H]2C[C@@H]3N(CCN)[C@]3(C)CCC[C@H](C)[C@H](O)[C@@H](C)C(=O)C(C)(C)[C@@H](O)CC(=O)O2)cs1 (stereo partly drawn) [Compound 79]
OVCAR-8; Homo sapiens, OVCAR-8, 96 h
  IC50: 63 ± 3 nM
MCF-7; Homo sapiens, MCF7, 96 h
  IC50: 14 ± 2 nM
NCI/ADR-RES; [3]
  IC50: 70 ± 10 nM
tubulin; [4]
  EC50: 6.1 ± 0.1 µM
MDA-MB-435 [1]; Homo sapiens, MDA-MB-435, 96 h
  IC50: 15 ± 4 nM
SNB-75; Homo sapiens, SNB-75, 96 h
  IC50: 23 ± 6 nM

## CSc1nc(/C=C(\C)[C@@H]2C[C@@H]3N(CCO)[C@]3(C)CCC[C@H](C)[C@H](O)[C@@H](C)C(=O)C(C)(C)[C@@H](O)CC(=O)O2)cs1 (stereo partly drawn) [Compound 78]
OVCAR-8; Homo sapiens, OVCAR-8, 96 h
  IC50: 75 ± 10 nM
MCF-7; Homo sapiens, MCF7, 96 h
  IC50: 28 ± 6 nM
NCI/ADR-RES; [3]
  IC50: 55 ± 7 nM
tubulin; [4]
  EC50: 14 ± 3 µM
MDA-MB-435 [1]; Homo sapiens, MDA-MB-435, 96 h
  IC50: 42 ± 5 nM
SNB-75; Homo sapiens, SNB-75, 96 h
  IC50: 60 ± 10 nM

## C/C(=C\c1cc(C(F)(F)F)n(-c2ccc(N)cc2)n1)[C@@H]1C[C@@H]2O[C@]2(C)CCC[C@H](C)[C@H](O)[C@@H](C)C(=O)C(C)(C)[C@@H](O)CC(=O)O1 [Compound 9]
U251
  GI50: 38.1 nM
RXF 393
  GI50: 40.7 nM
HCT-116
  GI50: 5.31 nM
COLO 205
  GI50: 14.7 nM
SF-539
  GI50: 24.8 nM
HCT-15
  GI50: 22 nM
SK-MEL-5
  GI50: 22.1 nM
PC-3
  GI50: 32.2 nM
OVCAR-3
  GI50: 15.8 nM
KM12
  GI50: 5.25 nM
HOP-92
  GI50: 183 nM
A549/ATCC
  GI50: 48.8 nM
HS 578T
  GI50: 36.4 nM
MOLT-4
  GI50: 48.1 nM
HT29
  GI50: 5.29 nM
K-562
  GI50: 15.7 nM
M14
  GI50: 13.7 nM
MCF7
  GI50: 3.65 nM
NCI-H460
  GI50: 6.45 nM
MDA-MB-435 [2]
  GI50: 2.08 nM
LOX IMVI
  GI50: 25 nM
A498
  GI50: 66 nM
RPMI-8226
  GI50: 11.1 nM
SW-620
  GI50: 5.4 nM
CCRF-CEM
  GI50: 47.6 nM
NCI-H23
  GI50: 88.5 nM
MDA-MB-468
  GI50: 23.1 nM
HL-60(TB)
  GI50: 7.88 nM
OVCAR-8; Homo sapiens, OVCAR-8, 96 h
  GI50: 300 nM
MCF-7; Homo sapiens, MCF7, 96 h
  GI50: 900 nM
tubulin; [5]
  EC50: > 40 µM

## CC(=O)O[C@H]1C(=O)[C@@]2(C)[C@H]([C@H](OC(=O)c3ccccc3)[C@]3(O)C[C@H](OC(=O)[C@H](O)[C@@H](NC(=O)c4ccccc4)c4ccccc4)C(C)=C1C3(C)C)[C@]1(OC(C)=O)CO[C@@H]1C[C@@H]2O [PTX, paclitaxel, reference compound]
OVCAR-8; Homo sapiens, OVCAR-8, 96 h
  IC50: 10 ± 2 nM
  GI50: 6.5 ± 2 nM
MCF-7; Homo sapiens, MCF7, 96 h
  IC50: 7.8 ± 2 nM
  GI50: 8.5 nM
NCI/ADR-RES; Homo sapiens, NCI/ADR-RES (overexpresses P-glycoprotein), IC50, 96 h at 37° C., Table 3
  IC50: 4200 nM
tubulin; [4]
  EC50: 5 ± 1 µM
MDA-MB-435 [1]; Homo sapiens, MDA-MB-435, IC50, 96 h at 37° C., Table 3
  IC50: 4 ± 1 nM
SNB-75; Homo sapiens, SNB-75, IC50, 96 h at 37° C., Table 3
  IC50: 15 nM

## CSc1cc(/C=C(\C)[C@@H]2C[C@@H]3N(CCO)[C@]3(C)CCC[C@H](C)[C@H](O)[C@@H](C)C(=O)C(C)(C)[C@@H](O)CC(=O)O2)nn1C (stereo partly drawn) [Compound 82]
OVCAR-8; Homo sapiens, OVCAR-8, 96 h
  IC50: 78 ± 4 nM
MCF-7; Homo sapiens, MCF7, 96 h
  IC50: 10 ± 1 nM
NCI/ADR-RES; [3]
  IC50: 7.5 ± 2 nM
tubulin; [4]
  EC50: 4.6 ± 0.9 µM
MDA-MB-435 [1]; Homo sapiens, MDA-MB-435, 96 h
  IC50: 12 ± 2 nM
SNB-75; Homo sapiens, SNB-75, 96 h
  IC50: 10 ± 2 nM

## C/C(=C\c1csc(C)n1)[C@@H]1C[C@@H]2O[C@]2(C)CCC[C@H](C)[C@H](O)[C@@H](C)C(=O)C(C)(C)[C@@H](O)CC(=O)O1 [EpoB, epothilone B, reference compound]
OVCAR-8; [6]
  IC50: 11 ± 3 nM
OVCAR-8; [7]
  GI50: 3.5 ± 0.7 nM
MCF-7; [8]
  IC50: 9.2 ± 2 nM
MCF-7; MCF-7, 96 h at 37° C., Table 2
  GI50: 5.5 nM
NCI/ADR-RES; [9]
  IC50: 19 ± 4 nM
tubulin; [5]
  EC50: […]
tubulin; [4]
  EC50: […]
MDA-MB-435 [1]; [10]
  IC50: 5.3 ± 0.7 nM
SNB-75; [11]
  IC50: 6.5 ± 2 nM

## C/C(=C\c1csc(N)n1)[C@@H]1C[C@@H]2N(CCO)[C@]2(C)CCC[C@H](C)[C@H](O)[C@@H](C)C(=O)C(C)(C)[C@@H](O)CC(=O)O1 (stereo partly drawn) [Compound 83]
OVCAR-8; Homo sapiens, OVCAR-8, 96 h
  IC50: 290 ± 10 nM
MCF-7; Homo sapiens, MCF7, 96 h
  IC50: 330 ± 40 nM
NCI/ADR-RES; [3]
  IC50: 3800 nM
tubulin; [4]
  EC50: 13 ± 0.4 µM
MDA-MB-435 [1]; Homo sapiens, MDA-MB-435, 96 h
  IC50: 220 ± 30 nM
SNB-75; Homo sapiens, SNB-75, 96 h
  IC50: 280 ± 30 nM

## C/C(=C\c1csc(C)n1)[C@@H]1C[C@@H]2O[C@@H]2CCC[C@H](C)[C@H](O)[C@@H](C)C(=O)C(C)(C)[C@@H](O)CC(=O)O1 [EpoA, epothilone A]
OVCAR-8; [6]
  IC50: 20 ± 5 nM
OVCAR-8; [7]
  GI50: 11 ± 2 nM
MCF-7; [8]
  IC50: 14 ± 4 nM
MCF-7; MCF-7, 96 h at 37° C., Table 2
  GI50: 10 ± 2 nM
NCI/ADR-RES; [9]
  IC50: 35 ± 5 nM
tubulin; [5]
  EC50: 16 ± 2 µM
tubulin; [4]
  EC50: 14 ± 3 µM
MDA-MB-435 [1]; [10]
  IC50: 15 ± 2 nM
SNB-75; [11]
  IC50: 14 ± 3 nM

## CSc1nc(/C=C(\C)[C@@H]2C[C@@H]3N[C@]3(C)CCC[C@H](C)[C@H](O)[C@@H](C)C(=O)C(C)(C)[C@@H](O)CC(=O)O2)cs1 [Compound 77]
OVCAR-8; Homo sapiens, OVCAR-8, 96 h
  IC50: 16 ± 4 nM
MCF-7; Homo sapiens, MCF7, 96 h
  IC50: 4 ± 1 nM
NCI/ADR-RES; [3]
  IC50: 8.8 ± 1 nM
tubulin; [4]
  EC50: 5 ± 1 µM
MDA-MB-435 [1]; Homo sapiens, MDA-MB-435, 96 h
  IC50: 4.5 ± 0.5 nM
SNB-75; Homo sapiens, SNB-75, 96 h
  IC50: 11 ± 3 nM
